Data from patent publication US6723302B1, “Model for cell migration and use thereof” (The Research Foundation of State University of New York, priority 1996, dated 2004).

Tests used:
[1] = test system: human adult dermal fibroblasts; assay: Two-dimensional outmigration model (collagen gel onto dried fibrin fibrils); assay type: cell-based; conditions: collagen gel surrounded with liquid medium instead of fibrin gel
Method: (§1) Primary cultures of human adult dermal fibroblasts were cultured in Dulbecco's modified Eagle's medium (DMEM, Life Technologies) supplemented with 100 U/ml penicillin and 100 μg/ml streptomycin, 42 mmol/l sodium bicarbonate and 10% fetal bovine serum (FBS, Atlanta Biologicals, Norcross, Ga.) at 37° C. and 5% CO2/95% air in a humidified atmosphere. The cells were used between passages 4 and 12.
Fibroblast cultures at 80% confluence were harvested by treatment with 0.05% trypsin/0.02% EDTA (ethylenediaminetetraacetic acid). Trypsin was inactivated by addition of soy bean trypsin inhibitor in PBS containing 0.2% BSA. The cells were washed twice with DMEM+10% FBS and resuspended at a concentration of 1×10^6 cells/ml. The fibroblasts were mixed with DMEM (5×), 10% FBS and neutralized collagen (Vitrogen 100, Celtrix Labs., Santa Clara, Calif.). In some experiments, FBS was replaced by 30 ng/ml PDGF-BB and 2% BSA. 0.6 ml aliquots of the cell mixture were added to the wells of a 24-well tissue culture plate, precoated with 2% BSA, and the collagen was allowed to polymerize at 37° C. […]
The number of migrated cells was evaluated under a Nikon inverted phase microscope by counting identifiable cell nuclei located outside of the contracted collagen gel, either on the fibrin fibril substrate (two-dimensional model) or within the fibrin gel (three-dimensional model). […]

[2] = test system: human adult dermal fibroblasts; assay: Three-dimensional transmigration model (collagen gel into fibrin gel); assay type: cell-based; conditions: for inhibition of transmigration by peptide added to the fibrin gel: transmigration stimulated by PR or PDGF-BB
Method: as §1
Fibroblast cultures at 80% confluence were harvested by treatment with 0.05% trypsin/0.02% EDTA (ethylenediaminetetraacetic acid). Trypsin was inactivated by addition of soy bean trypsin inhibitor in PBS containing 0.2% BSA. The cells were washed twice with DMEM+10% FBS and resuspended at a concentration of 1×10^6 cells/ml. The fibroblasts were mixed with DMEM (5×), 10% FBS and neutralized collagen (Vitrogen 100, Celtrix Labs., Santa Clara, Calif.). In some experiments, FBS was replaced by 30 ng/ml PDGF-BB and 2% BSA. 0.6 ml aliquots of the cell mixture were added to the wells of a 24-well tissue culture plate, precoated with 2% BSA, and the collagen was allowed to polymerize at 37° C. The final concentration of collagen was 1.8 mg/ml and each gel contained 6×10^4 cells. After two hours incubation, the gels were gently detached from the plastic surface to allow contraction, 0.5 ml DMEM+10% FBS was added, and the gels were incubated overnight at 37° C. in 5% CO2.
Fibrinogen was mixed with DMEM (5×) and 0.5 U/ml thrombin (New York Blood Center, New York, N.Y.) so that the final concentration of fibrinogen was 300 μg/ml. Aliquots of 450 μl were added to the wells of a 24-well plate, and after a 2 hour incubation at 37° C. in 5% CO2, the polymerized gels were dried overnight at room temperature under sterile conditions.
Dried fibrin fibril-coated dishes were washed once with PBS and contracted collagen gels were placed on the surface. Fibrinogen, at a final concentration of 300 μg/ml, was mixed with DMEM (5×) and 1.0 U/ml thrombin. When needed, other supplements, such as growth factors, were added to the mixture. The collagen gels were surrounded with the fibrinogen solution so that the fibrin gel was level with the collagen gel (FIG. 1)
The number of migrated cells was evaluated under a Nikon inverted phase microscope by counting identifiable cell nuclei located outside of the contracted collagen gel, either on the fibrin fibril substrate (two-dimensional model) or within the fibrin gel (three-dimensional model). Each condition was assayed in triplicate and experiments were repeated at least three times.

NCCCCCC(=O)O [ε-ACA, ε-Amino-n-Caproic acid]
inhibition of outmigration onto dried fibrin fibrils induced by PDGF-BB [1]: not inhibited
inhibition of transmigration induced by PDGF-BB (protease inhibitors) ([2]; in words): inhibited
reduction of invasion of the fibrin gel ([2]; transmigration induced by PDGF-BB, 500 μg/ml ε-ACA): about 80%

GRGDSP [synthetic RGD peptide]
inhibition of transmigration by peptide added to the fibrin gel [2]: inhibited

GRGESP [control-peptide]
inhibition of transmigration by peptide added to the fibrin gel [2]: not

B1: PDGF-BB: Recombinant platelet-derived growth factor from ZymoGenetics (protein, UniProt P01127 82-190, looked up)
Platelet-derived growth …: SLGSLTIAEPAMIAECKTRTEVFEISRRLIDRTNANFLVWPPCVEVQRCSGCCNNRNVQCRPTQVQLRPVQVRKIEIVRKKPIFKKATVTLEDHLACKCETVAAARPVT
induction of transmigration of fibroblasts from the collagen gel into the fibrin gel ([2]; counted after one day): could be induced
